Laboratory results: publication PMC7503308, “A Novel Urease Inhibitor of Ruminal Microbiota Screened through Molecular Docking” (International Journal of Molecular Sciences, 2020)
Read-outs that look alike come from different tables or passages of the source.

Experiments:
[1] = design: method as in PMID 19050709; conditions: human patients; cited from earlier work
ruminal microbiota [2] = conditions: cited from earlier work
H. pylori urease = test system: H. pylori urease; design: method as in PMID 23567958; conditions: cited from earlier work
ruminal microbiota [3] = assay: Ruminal microbial fermentation in vitro (six generations): urea and NH3-N; format: cell-based, rumen fluid of Chinese Holstein dairy cows; conditions: 100 μM compound, 24 h, p < 0.01
Procedure: Seven solutions were prepared for the anaerobic media as solution A (3 g/L K2HPO4), solution B (0.6 g/L CaCl2, 3 g/L K2HPO4, 6 g/L NaCl, 0.6 g/L MgSO4·7H2O), solution C (6 g/L K2HPO4), solution D (1.6 g/L CaCl2·2H2O, 6 g/L K2HPO4, 12 g/L NaCl, 2.5 g/L MgSO4·7H2O), trace element solution (300 mg/L H3BO3, 100 mg/L ZnSO4·7H2O, 30 mg/L MnCl2·4H2O, 20 mg/L CoCl2·6H2O, 30 mg/L Na2MoO4·2H2O, 10 mg/L Na2SeO3, 20 mg/L NiCl2, 10 mg/L CuCl2·2H2O, 150 mg/L FeCl2·4H2O), volatile fatty acid (VFA) mixed solution (17 mL acetic acid, 6 mL propionic acid, 4 mL butyric acid, 1 mL n-valeric acid, 1 mL isovaleric acid, and 1 mL isobutyric acid), and hemin solution, prepared by diluting 50 mg of Haemon in NaOH (1 N solution) and made up to 100 mL with distilled water. Each liter of anaerobic media contained 30 mL of autoclaved rumen fluid supernatant, 0.5 g of glucose, 0.5 g of soluble starch, 0.5 g of cellobiose, 0.5 g of maltose, 0.5 g of […], 0.5 g of tripticase, 0.5 g of yeast extract, 8 g of NaHCO3, 0.1 mL of trace elements solution, 15 mL solution A, 15 mL solution B, 0.5 g of cysteine hydrochloride, 10 mL of hemin solution, 3.1 mL of VFA mixed solution, and 1 mg resazurin. The anaerobic urea solution was prepared using an anaerobic glove box, by dissolving 2.5 g of urea in a 50 mL anaerobic diluent. This diluent consisted of 3.8 mL of salt solution C, 3.8 mL of salt solution D, 5 mL of 8% sodium Na2CO3, 1 mL of 0.1% resazurin, 0.5 g of cysteine hydrochloride dissolved in distilled water and made up to 1000 mL and distributed into 50 mL anaerobic bottles. All the anaerobic bottles were sterilized by autoclave. Prior to the inoculation, fresh frozen rumen fluid samples, pretreated as described previously, were removed from the freezer, thawed, homogenized, and used immediately. […] Chromatographic gradients were referenced to the paper.

jack bean urease = test system: jack bean urease; design: method as in PMID 17418881; conditions: cited from earlier work
ruminal microbial urease = assay: Urease inhibition assay (Berthelot alkaline phenol-hypochlorite method); format: biochemical, rumen bacteria of Chinese Holstein dairy cows; conditions: ruminal microbial urease, 37 °C, 30 min, pH 7.5
Procedure: Rumen fluid samples were collected from five Chinese Holstein dairy cows with permanent rumen fistula 3 h after feeding a total mixed ration in the morning. All the operations were conducted in accordance with the protocol approved by the Animal Care and Use Committee for Livestock of the Institute of Animal Sciences, Chinese Academy of Agricultural Sciences (Permit Number: IAS2019-14, Permit Date: 22-03-2019). All rumen fluid samples were filtered by a six layer sterilized medical gauze and mixed in a sterilized beaker before being evenly distributed into different 50 mL tubes and stored in liquid nitrogen. The deforested samples were centrifuged at 12,000× g for 10 min at 4 °C, then the supernatant was removed from the tube. The remaining sediments were resuspended in a HEPES buffer solution (pH 7.5, 50 mM) and then centrifuged at 12,000× g for 10 min at 4 °C. The supernatant was discarded and the remaining rumen bacteria were collected and stored at −80 °C for later urease extraction. All the sample handing processes were conducted on an ice bath. […]
In vitro urease inhibition screening assays were conducted to further narrow the virtual screened compounds for further IC50 determination and kinetic characterization. […] The ammonia that was produced was measured using 50 μL of a phenol reagent containing 10.0 g/L phenol and 50 mg/L of sodium nitroprusside, and 50 μL of alkali reagent containing 5 g/L sodium hydroxide and 8.4 mL/L of sodium hypochlorite solution, at 37 °C for 30 min. The absorbance of each well was measured at 625 nm by a micro plate spectrophotometer (Thermo Scientific Varioskan Flash G-282, Thermo Scientific, Waltham, MA, USA). The endogenous nitrogen (blank) was measured by adding a 70 μL HEPES buffer (pH 7.5, 50 mM) containing no urea and 20 μL methanol solution in the first 30 min of the reaction mixture. The 100% initial activity was determined by adding a 15 μL methanol solution in the first 30 min of the reaction mixture. […]

Caco-2 cells = assay: CCK8 colorimetric cytotoxicity assay; format: cell-based; conditions: concentration below 100 μM, 24 h, p > 0.05
Procedure: A standard CCK8 colorimetric assay was employed for the evaluation of cytotoxic activity of compound 6238-0047 using 96-well flat bottomed microplates. Dulbecco’s Modified Eagle Medium (GIBCO) with 10% FBS (fetal bovine serum, FBS, Gibco) and 1% NEAA was used for the culturing of Caco-2 cells (ATCC, Manassas, VA, USA), and the medium was supplemented with 100 μg/mL of streptomycin and 100 IU/mL of penicillin. The medium was kept in 5% CO2 and incubated at 37 °C. The exponentially grown cells were harvested, counted using a hemocytometer and diluted with the medium. The cell culture was diluted to a density of 1 × 10^5 cells/mL and transferred into a 96-well plate with 135 μL or […]. The medium was incubated for 24 h for cell attachment. Following this, 15 μL of compounds with different final concentrations of 1, 10, 25, 50, and 100 μM in the experimental group and fresh medium as a control group, were added to a plate with five replicates for each. After 24 h of incubation at 37 °C and kept in 5% CO2, 15 μL of CCK8 was added to each well and after 2 h the absorbance was measured at 450 nm using a microplate reader. The formula for calculating the relative cell viability was as follows:Relative cell viability (%) = absorbance of experimental group/absorbance of control group × 100%

rumen microbiota = test system: rumen microbiota; design: method as in PMID 10682821; conditions: cows with permanent rumen fistula, cited from earlier work

SMILES | Patients with dermatological, neurological or hematological issues necessitating discontinuation of therapy [1] | AHA degradation (ruminal microbiota [2]) | IC50 (H. pylori urease) | Amount of urea degradation vs control group (ruminal microbiota [3]; 16.65 mM urea) | NH3-N concentration / production vs control group (ruminal microbiota [3]) | IC50 (jack bean urease) | IC50 (ruminal microbial urease) | Relative cell viability of Caco-2 cell culture (Caco-2 cells) | Ruminal ammonia nitrogen production vs control group (rumen microbiota; fifteenth day of treatment) | Ruminal ammonia nitrogen production vs control group (rumen microbiota; second day of treatment)
CC(=O)NO [AHA, acetohydroxamic acid, reference compound] | more than 20% | 100% | 18.2 µM | significantly lowered the amount of urea degradation | significantly lower than the control group | 60 µM | 158 µM | no significant influence | – | –
CCCCNP(N)(N)=S [NBPT, N-(n-butyl) thiophosphoric triamide] | – | – | – | – | – | – | – | – | tended to approach the control group | lower than that of the control group
